Assay results as given in ChEMBL document CHEMBL1128320 (J Med Chem, 1995).

Experiments:
[1] = molecular target: T1, Steroid 17-alpha-hydroxylase/17,20 lyase (Homo sapiens, UniProt P05093)
T1 sequence (P05093 whole entry): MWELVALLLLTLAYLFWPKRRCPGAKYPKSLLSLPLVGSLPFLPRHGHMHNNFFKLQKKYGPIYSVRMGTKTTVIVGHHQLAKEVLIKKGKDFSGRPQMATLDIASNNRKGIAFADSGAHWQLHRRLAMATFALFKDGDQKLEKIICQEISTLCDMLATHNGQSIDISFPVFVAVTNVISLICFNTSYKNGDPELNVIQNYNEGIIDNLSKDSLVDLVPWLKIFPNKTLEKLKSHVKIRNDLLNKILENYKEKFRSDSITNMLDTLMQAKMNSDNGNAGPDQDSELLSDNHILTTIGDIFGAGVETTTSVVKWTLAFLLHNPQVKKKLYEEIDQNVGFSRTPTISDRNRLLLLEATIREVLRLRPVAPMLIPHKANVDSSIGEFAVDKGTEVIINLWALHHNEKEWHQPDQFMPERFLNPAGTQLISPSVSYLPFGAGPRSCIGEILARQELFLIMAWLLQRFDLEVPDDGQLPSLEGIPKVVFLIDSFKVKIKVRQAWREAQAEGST

[2] = molecular target: T1, Steroid 17-alpha-hydroxylase/17,20 lyase; remark: listed apart in the source
[3] = molecular target: T2, Steroid 17-alpha-hydroxylase/17,20 lyase (Rattus norvegicus, UniProt P11715)
T2 sequence (P11715 whole entry): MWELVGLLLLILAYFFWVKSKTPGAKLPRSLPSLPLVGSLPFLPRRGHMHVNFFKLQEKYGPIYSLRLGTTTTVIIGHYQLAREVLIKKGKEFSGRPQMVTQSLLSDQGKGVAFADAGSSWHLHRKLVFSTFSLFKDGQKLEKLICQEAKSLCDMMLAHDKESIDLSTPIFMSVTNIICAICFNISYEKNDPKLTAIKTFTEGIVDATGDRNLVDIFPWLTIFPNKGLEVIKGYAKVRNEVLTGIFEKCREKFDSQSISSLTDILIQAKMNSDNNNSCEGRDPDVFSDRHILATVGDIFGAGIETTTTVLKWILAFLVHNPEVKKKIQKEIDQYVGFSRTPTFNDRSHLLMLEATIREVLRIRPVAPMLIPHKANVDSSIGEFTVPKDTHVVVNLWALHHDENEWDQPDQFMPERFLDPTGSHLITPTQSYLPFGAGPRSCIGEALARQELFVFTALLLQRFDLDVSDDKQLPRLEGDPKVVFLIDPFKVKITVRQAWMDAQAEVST

[4] = molecular target: T2, Steroid 17-alpha-hydroxylase/17,20 lyase; remark: listed apart in the source
esterase = test: in vitro; conditions: rat, in vivo
Description: Hydrolysis rate by rat liver microsomal esterase

Row | Structure (SMILES) | IC50 [1] | IC50 [2] | IC50 [3] | IC50 [4] | half-life (esterase)
1 | C[C@@H]1CCC2C(C)(C)C3CC21CC[C@@]3(C)OC(=O)Cc1ccncc1 (stereo not given in full) | 52 nM | 270 nM | – | – | –
2 | C[C@@H]1C(OC(=O)Cc2cccnc2)CC2CC1C2(C)C (stereo not given in full) | 88 nM | 260 nM | 520 nM | 460 nM | 16 min
3 | O=C(Cc1cccnc1)OC12CC3CC(CC(C3)C1)C2 | 130 nM | 930 nM | – | – | –
4 | CC1(OC(=O)Cc2cccnc2)C2CC3CC(C2)CC1C3 (stereo not given) | 320 nM | 1900 nM | – | – | –
5 | C[C@@H]1CCC2C(C)(C)C3CC21CC[C@@]3(C)OC(=O)Cc1cccnc1 (stereo not given in full) | 38 nM | 230 nM | – | – | –
6 | CC(C(=O)OC12CC3CC(CC(C3)C1)C2)c1cccnc1 (stereo not given) | 35 nM | 220 nM | – | – | –
7 | C[C@@H]1C(OC(=O)Cc2ccccn2)CC2CC1C2(C)C (stereo not given in full) | > 1000 nM | > 1000 nM | – | – | –
8 | C[C@@H]1CCC2C(C)(C)C3CC21CC[C@@]3(C)OC(=O)C(C)(C)c1cccnc1 (stereo not given in full) | 670 nM | 4000 nM | – | – | –

Second part, the molecule after the results:

Row | IC50 [1] | IC50 [2] | IC50 [3] | IC50 [4] | half-life (esterase) | Structure (SMILES)
9 | 13 nM | 90 nM | – | – | – | CC(C)(C(=O)OC12CC3CC(CC(C3)C1)C2)c1cccnc1
10 | 15 nM | 29 nM | 52 nM | 47 nM | – | C[C@@H]1C(OC(=O)C(C)(C)c2cccnc2)CC2CC1C2(C)C (stereo not given in full)
11 | 6 nM | 19 nM | – | – | 100 min | CC(C(=O)OC1CC2CC([C@@H]1C)C2(C)C)c1ccncc1 (stereo not given in full)
12 | 9 nM | 34 nM | – | – | 88 min | CCC(C(=O)OC1CC2CC([C@@H]1C)C2(C)C)c1ccncc1 (stereo not given in full)
13 | 35 nM | 140 nM | – | – | – | CCC(CC)(C(=O)OC1CC2CC([C@@H]1C)C2(C)C)c1ccncc1 (stereo not given in full)
14 | 13 nM | 75 nM | – | – | – | CC(C)(C(=O)OC1(C)C2CC3CC(C2)CC1C3)c1cccnc1 (stereo not given)
15 | 10 nM | 26 nM | – | – | – | C[C@@H]1C(OC(=O)C(C)(C)c2ccncc2)CC2CC1C2(C)C (stereo not given in full)
16 | 5 nM | 14 nM | 280 nM | 260 nM | 17.5 min | C[C@@H]1C(OC(=O)Cc2ccncc2)CC2CC1C2(C)C (stereo not given in full)
17 | 14 nM | 82 nM | – | – | 50 min | CC(C(=O)OC1CC2CC([C@@H]1C)C2(C)C)c1cccnc1 (stereo not given in full)
